How the values were obtained:
[1] = test system: human multiple myeloma U266; assay: Blood human IgE in NOG mice transplanted with human multiple myeloma U266; type: in vivo; conditions: for effect on blood concentration of human IgE (in words): NOG mice transplanted with U266; for Blood IgE level / Suppression ratio (blood IgE): NOG mice, 6 weeks after transplantation of U266
Method: Prednisolone (hereinafter, abbreviated to “PSL”), which is a general name of that manufactured by Shionogi & Co., Ltd., was used as a chemotherapeutic agent.
Seven-week-old NOD/SCID/γc^null (NOG) mice were divided into five groups of ten mice each (nine mice only in a control group), and […] cells of multiple myeloma cell line U266 were transplanted to each mouse via tail vein injection (the 0th day). The first group was used as a non-treated control group; in the second group, 1 mg/kg of TM-411 was orally administered for 28 days from the first day; in the third group, 3 mg/kg of TM-411 was orally administered for 28 days from the first day; in the fourth group, 7.5 mg/kg of PSL was orally administered for 8 days from the 21st day; and in the fifth group, 1 mg/kg of TM-411 was orally administered for 28 days from the first day and 7.5 mg/kg of PSL was orally administered in addition to the TM-411 for 8 days from the 21st day. Blood concentration of human IgE was measured 6 weeks after the transplantation of U266.

human liver cancer HePG2 = assay: Growth suppression of human liver cancer HePG2 transplanted in nude mice; type: in vivo; conditions: for tumor volume: nude mice, TM-411 1 mg/kg oral daily 20 days, ADR 5 mg/kg i.v. once on first day; for effect on suppression of the growth of the tumor (in words): nude mice transplanted with HePG2, same doses as Table 3
Method: Doxorubicin (hereinafter, abbreviated to “ADR”), which is a general name of that manufactured by Kyowa Hakko Kogyo Co., Ltd., was used as a chemotherapeutic agent.
About 2×2×2 mm of a tumor cell mass of human liver cancer HePG2 was subcutaneously transplanted in dorsal portions of 6-week-old BALB/cAJcl-nu nude mice through a trocar. The administration was started on the day (defined as the first day) two days after the transplantation. TM-411 was orally administered at a dose of 1 mg/kg for 20 days every day from the first day. ADR was intravenously administered at a dose of 5 mg/kg once on the first day.
(§1) In a combination use group of TM-411 and ADR, each agent was administered at the same amount and the same administration route as those in the single administration. Tumor diameters were measured every day from the day of the start of the administration (the 1st day) to the day of the completion of the administration (the 20th day), and effect on suppression of the growth was investigated. […] In a control group, physiological saline was administered at the same amount and the same administration route as those in the single administration of each agent.

human liver cancer JHH-7 = assay: Growth suppression of human liver cancer JHH-7 transplanted in nude mice; type: in vivo; conditions: for tumor volume: nude mice, TM-411 3 mg/kg oral daily 20 days, 5-FU 15.2 mg/kg oral 8th to 12th day; for effect on suppression of the growth of the tumor (in words): nude mice transplanted with JHH-7, same doses as Table 2
Method: Fluorouracil (hereinafter, abbreviated to “5-FU”), which is a general name of that manufactured by Kyowa Hakko Kogyo Co., Ltd., was used as a chemotherapeutic agent.
A tumor cell mass of human liver cancer JHH-7 was subcutaneously transplanted in dorsal portions of 6-week-old BALB/cAJcl-nu nude mice through a trocar. When the tumor volume reached 100 to 300 mm^3, the administration was started. TM-411 was orally administered once a day at a dose of 3 mg/kg for 20 days every day. 5-FU was orally administered at a dose of 15.2 mg/kg for 5 days every day from the 8th day to the 12th day.
as §1, with “TM-411 and 5-FU, each agent” for “TM-411 and ADR, each agent”, “to the next day of” for “to the day of”, “administration (the 21st day), and” for “administration (the 20th day), and”

[2] = test system: human breast cancer Br-10; assay: Growth suppression of human breast cancer Br-10 transplanted in nude mice; type: in vivo, mouse; conditions: for tumor volume: nude mice, TM-411 1 mg/kg oral daily 28 days, DXL 7.5 mg/kg i.v. every 4 days three times; for effect on suppression of the growth of the tumor (in words): nude mice transplanted with Br-10, same doses as Table 1
Description: Tamibarotene (hereinafter, simply abbreviated to “TM-411”) was used as a synthetic retinoid and was also used in the following other Examples. Taxotere (hereinafter, abbreviated to “DXL”), which is a general name of that manufactured by sanofi-aventis K.K., was used as a chemotherapeutic agent.
A tumor cell mass of human breast cancer Br-10 was subcutaneously transplanted in dorsal portions of 6-week-old BALB/cAJcl-nu nude mice through a trocar. When the tumor volume reached 100 to 300 mm^3, the administration was started. TM-411 was orally administered once a day at a dose of 1 mg/kg for 28 days every day. DXL was intravenously administered from the first day at a dose of 7.5 mg/kg every 4 days three times.
as §1, with “TM-411 and DXL, each agent” for “TM-411 and ADR, each agent”, “to the next day of” for “to the day of”, “administration (the 29th day), and” for “administration (the 20th day), and”

[3] = PSL 7.5 mg/kg oral 8 days from 21st day

Row | SMILES | effect on blood concentration of human IgE (in words) [1] | tumor volume (human liver cancer HePG2; 3rd day) [mm^3] | tumor volume (human liver cancer HePG2; 7th day) [mm^3] | tumor volume (human liver cancer HePG2; 9th day) [mm^3] | tumor volume (human liver cancer HePG2; 11th day) [mm^3] | tumor volume (human liver cancer HePG2; 13th day) [mm^3] | tumor volume (human liver cancer HePG2; 15th day) [mm^3] | tumor volume (human liver cancer HePG2; 17th day) [mm^3] | tumor volume (human liver cancer HePG2; 20th day) [mm^3] | effect on suppression of the growth of the tumor (in words) (human liver cancer HePG2) | tumor volume (human liver cancer JHH-7; 1st day) [mm^3] | tumor volume (human liver cancer JHH-7; 4th day) [mm^3] | tumor volume (human liver cancer JHH-7; 7th day) [mm^3] | tumor volume (human liver cancer JHH-7; 11th day) [mm^3] | tumor volume (human liver cancer JHH-7; 14th day) [mm^3] | tumor volume (human liver cancer JHH-7; 18th day) [mm^3] | tumor volume (human liver cancer JHH-7; 21st day) [mm^3] | effect on suppression of the growth of the tumor (in words) (human liver cancer JHH-7) | tumor volume ([2]; 1st day) [mm^3] | tumor volume ([2]; 5th day) [mm^3] | further results
1 | CC1(C)CCC(C)(C)c2cc(NC(=O)c3ccc(C(=O)O)cc3)ccc21 [TM-411, Tamibarotene] | decreased | 15.8 | 33.6 | 171.5 | 196 | 256 | 520 | 600 | 726 | suppressed the growth of the tumor | 136.1 | 169.8 | 201.8 | 312.7 | 452.7 | 953.1 | 1097.4 | suppressed | 136.4 | 173.6 | Blood IgE level ([1]; TM-411 1 mg/kg oral 28 days): 2519 ng/mL; Suppression ratio (blood IgE) ([1]; TM-411 1 mg/kg oral 28 days): 6.5%; Blood IgE level ([1]; TM-411 3 mg/kg oral 28 days): 1755 ng/mL; Suppression ratio (blood IgE) ([1]; TM-411 3 mg/kg oral 28 days): 34.0%; tumor volume (human liver cancer HePG2; 5th day): 21.4 mm^3; tumor volume ([2]; 8th day): 234.1 mm^3; tumor volume ([2]; 12th day): 317.5 mm^3; tumor volume ([2]; 15th day): 359.5 mm^3; tumor volume ([2]; 19th day): 429.9 mm^3; tumor volume ([2]; 22nd day): 451.7 mm^3; tumor volume ([2]; 25th day): 455.7 mm^3; tumor volume ([2]; 29th day): 476.5 mm^3; effect on suppression of the growth of the tumor (in words) [2]: significantly suppressed
2 | CC(=O)O[C@@]12CO[C@@H]1C[C@H](O)[C@@]1(C)C(=O)[C@H](O)C3=C(C)[C@@H](OC(=O)[C@H](O)[C@@H](NC(=O)OC(C)(C)C)c4ccccc4)C[C@@](O)([C@@H](OC(=O)c4ccccc4)[C@H]21)C3(C)C [DXL, Taxotere] |  |  |  |  |  |  |  |  |  |  |  |  |  |  |  |  |  |  | 138.9 | 149.7 | tumor volume ([2]; 8th day): 132.6 mm^3; tumor volume ([2]; 12th day): 93.9 mm^3; tumor volume ([2]; 15th day): 76.0 mm^3; tumor volume ([2]; 19th day): 70.1 mm^3; tumor volume ([2]; 22nd day): 59.3 mm^3; tumor volume ([2]; 25th day): 58.2 mm^3; tumor volume ([2]; 29th day): 62.3 mm^3; effect on suppression of the growth of the tumor (in words) [2]: significantly suppressed
3 | O=c1[nH]cc(F)c(=O)[nH]1 [5-FU, Fluorouracil] |  |  |  |  |  |  |  |  |  |  | 126.6 | 193.8 | 291.6 | 496.6 | 697.5 | 1071 | 1408 | suppressed |  |  | 
4 | C[C@]12C=CC(=O)C=C1CC[C@@H]1[C@@H]2[C@@H](O)C[C@@]2(C)[C@H]1CC[C@]2(O)C(=O)CO [PSL, Prednisolone] | decreased |  |  |  |  |  |  |  |  |  |  |  |  |  |  |  |  |  |  |  | Blood IgE level [1, 3]: 2204 ng/mL; Suppression ratio (blood IgE) [1, 3]: 18.2%
5 | COc1cccc2c1C(=O)c1c(O)c3c(c(O)c1C2=O)C[C@@](O)(C(=O)CO)C[C@@H]3O[C@H]1C[C@H](N)[C@H](O)[C@H](C)O1 [ADR, Doxorubicin] |  | 4.0 | 18.8 | 45.5 | 180.0 | 410.5 | 650 | 842 | 1000 | suppressed the growth of the tumor |  |  |  |  |  |  |  |  |  |  | 

From US20090117203A1, “KIT FOR CANCER TREATMENT AND PHARMACEUTICAL COMPOSITION FOR CANCER TREATMENT” (TMRC Co., Ltd., priority 2006, published 2009)
